In the test the target is T1, human TGR5 (Homo sapiens, UniProt Q8TDU6).
T1 construct: expressed in transfected cells; host or cells: BHK cells
T1 sequence (Q8TDU6 1-330): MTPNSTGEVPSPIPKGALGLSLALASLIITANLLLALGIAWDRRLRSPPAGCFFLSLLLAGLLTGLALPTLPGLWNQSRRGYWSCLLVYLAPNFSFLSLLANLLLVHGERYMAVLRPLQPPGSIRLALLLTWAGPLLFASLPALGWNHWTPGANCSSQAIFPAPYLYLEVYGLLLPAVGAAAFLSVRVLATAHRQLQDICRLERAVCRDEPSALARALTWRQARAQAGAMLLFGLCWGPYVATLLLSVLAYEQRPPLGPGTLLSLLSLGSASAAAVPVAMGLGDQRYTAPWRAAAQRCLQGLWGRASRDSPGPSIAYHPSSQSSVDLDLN
The experiment in a line: cAMP production in BHK cells expressing the human TGR5 (CisBio cAMP kit), normalized to LCA = 100%. The test is classed as cell-based. The conditions noted are these: BHK cells expressing human TGR5, 30 minutes incubation. The procedure: The activity of the natural products, with respect to their TGR5 activating capacities, was analyzed as follows:
BHK cells, expressing the human TGR5, were seeded into 384-well plates and grown overnight. The next day, natural test compounds (and LCA as positive control) were incubated on the cells for 30 minutes. As TGR5 couples to […] proteins, the increase of cellular cAMP production, as a measure for TGR5 activity, was analyzed by using a commercially available cAMP kit (CisBio international). The cAMP production was measured according to the kit manufacturer's protocol. Data were normalized by setting the cAMP production induced by LCA to 100% activity. EC50 values were determined by using the GraphPad PrismSoftware (Graph. Pad Software Inc.).
Background: Changes in cAMP serve as a functional read-out for many G protein-coupled receptors.

In the case of `C=CC1C(CO)=CCC2C1CCC1C(C)(C)C(=O)CCC21C` (centres unmarked) [A1, 17-hydroxy-12,15-cleistanthadiene-3-one], the response was half-maximal at 3 µM (EC50). For the compound `CCC(C)C1OC(=O)C(Cc2ccccc2)NC(=O)C(C)C/C(C)=C/C(C)C(O)/C(C)=C/C1C` (centres unmarked) [A4, (8E,12E)-3-benzyl-15-sec-butyl-11-hydroxy-6,8,10,12,14-pentamethyl-1-oxa-4-azacyclopentadeca-8,12-diene-2,5-dione], the EC50 – broadly, the concentration that produces a half-maximal response – (unit inferred) is 0.4 µM.

For the origin of these results see patent publication US20110092582A1, “New Terpenes And Macrocycles” (MERCK PATENT GESELLSCHAFT, priority 2008, published 2011).
